Measured values from patent US7812022B2 (GlaxoSmithKline LLC, priority 2004, dated 2010).

What was measured:
[1] = molecular target: T1, ErbB2 or EGFR; experiment: ErbB family substrate phosphorylation enzyme assay (HTRF), Method A or Method B; assay type: biochemical
T1 construct: enzymes purified from a baculovirus expression system; Reagent production was conducted essentially as described in Brignola, P. S., et al, (2002) J. Biol. Chem. 277(2): 1576-1585
Outline: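 Baculovirus-expressed EGFR or ErbB2 (0.8 or 10 nM in enzyme mix) phosphorylates biotinylated Peptide C with 20 µM ATP and 0.8 µM peptide (substrate-mix levels), MnCl2, pH 7.5. Reaction ran 90 min at 20 °C with EDTA stop and HTRF anti-phosphotyrosine read. Method A: enzyme added last; Method B: 1 h enzyme–compound preincubation.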

[2] = test system: BT474 and HN5 tumor cell lines; experiment: Methylene blue growth inhibition assay (cellular Method A); assay type: cell-based, Human; conditions: Homo sapiens, BT-474, 72 h, 3 days, read-out: Activity (Method): growth inhibition IC50 class
Outline: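 Growth inhibition measured by methylene blue staining of biomass (OD 620) after 3 days' compound exposure at 37° C, final DMSO 0.3%. Cell lines: BT474 (10,000/well), HN5 (3,000/well) and Colo205, all in DMEM with 10% FBS; IC50 fitted by nonlinear regression against vehicle-treated wells.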

[3] = test system: Colo205 tumor cell lines; experiment: Methylene blue growth inhibition assay (cellular Method A), Colo205; assay type: cell-based, Human; conditions: Homo sapiens, COLO 205, 72 h, 3 days, read-out: Activity (Method): growth inhibition IC50 class
Procedure: Human breast (BT474) and head and neck (HN5) were cultured in low glucose DMEM (Life Technologies 12320-032) containing 10% fetal bovine serum (FBS). Human colon tumor cells (Colo205) were cultured in DMEM (Invitrogen, 10564) containing 10% FBS. The SV40 transformed human mammary epithelial cell line HB4a was transfected with either human H-ras cDNA (HB4a r4.2) or the human c-ErbB2 cDNA (HB4a c5.2). The HB4a clones were cultured in RPMI containing 10% FBS, insulin (5 g/mL), hydrocortisone (5 g/mL), supplemented with the selection agent hygromycin B (50 g/mL). All lines were grown in a humidified incubator at 37° C. in 95% air, 5% CO2. Cells were harvested using trypsin/EDTA, counted using a haemocytometer, and plated in 100 microliters of the appropriate media, at the following densities, in a 96-well tissue culture plate (Falcon 3075): BT474 10,000 cells/well, HN5 3,000 cells/well. The next day, compounds were diluted in DMEM containing […] gentamicin, at twice the final required concentration, from 10 mM stock solutions in DMSO. 100 microliters/well of these dilutions were added to the 100 microliters of media currently on the cell plates. Medium containing 0.6% DMSO was added to control wells. Compounds diluted in DMEM were added to all cell lines. The final concentration of DMSO in all wells was 0.3%. Cells were returned to the incubator (37° C., 10% CO2) for 3 days. Medium was then removed by aspiration. Cell biomass was estimated by staining cells with 90 microliters per well methylene blue (Sigma M9140, 0.5% in 1:1 ethanol:water), and incubation at rt for at least 30 minutes. Stain was removed, and the plates rinsed by immersion in deionized water and air-dried. To release stain from the cells 100 microliters of solubilization solution was added (1% N-lauroyl sarcosine, Sodium salt, Sigma L5125, in PBS), and plates were shaken gently for about 30 minutes. Optical density at 620 nm was measured on a microplate reader. Percent inhibition of cell growth was calculated relative to vehicle treated control wells. Concentration of compound that inhibits 50% of control cell growth (IC50) was interpolated using nonlinear regression (Levenberg-Marquardt) and the equation, y=Vmax*(1−(x/(K+x)))+Y2, where “K” was equal to the IC50. Method B: Celltiter Glo® Growth Inhibition Assays

[4] = Method B: enzyme mix pre-incubated with compound 1 hour at 20° C., started with substrate mix
[5] = Method A: substrate mix added first, reaction started with enzyme mix

| IC50 [2] [nM] | IC50 [3] [nM] | Compound | Activity (Method): pIC50 class against ErbB2 or EGFR [1, 4] | Activity (Method): pIC50 class against ErbB2 or EGFR [1, 5] |
| --- | --- | --- | --- | --- |
| < 100 | 100 to 1000 | O=C(Nc1cccc(-c2nn3ccccc3c2-c2ccnc(Nc3ccc(CCN4CCOCC4)cc3)n2)c1)c1c(F)cccc1F [Example 56, 2,6-Difluoro-N-(3-{3-[2-({4-[2-(4-morpholinyl)ethyl]-phenyl}amino)-4-pyrimidinyl]pyrazolo[1,5-a]pyridin-2-yl}phenyl)benzamide] | +++ (B) (at least one pIC50 measurement of greater than 7 against either ErbB2 or EGFR) | – |
| < 100 | < 100 | CN1CCC[C@H]1COc1ccc(Nc2nccc(-c3c(-c4cccc(NC(=O)c5c(F)cccc5F)c4)nn4ccccc34)n2)cc1F [Example 132, 2,6-Difluoro-N-{3-[3-(2-{[3-fluoro-4-({[(2S)-1-methyl-2-pyrrolidinyl]methyl}oxy)phenyl]amino}-4-pyrimidinyl)pyrazolo[1,5-a]pyridin-2-yl]phenyl}benzamide] | +++ (B) (at least one pIC50 measurement of greater than 7 against either ErbB2 or EGFR) | – |
| < 100 | > 1000 | O=C(Nc1cccc(-c2nn3ccccc3c2-c2ccnc(Nc3cccc(S(=O)(=O)CCO)c3)n2)c1)c1c(F)cccc1F [Example 58, 2,6-Difluoro-N-(3-{3-[2-({3-[(2-hydroxyethyl)sulfonyl]-phenyl}amino)-4-pyrimidinyl]pyrazolo[1,5-a]pyridin-2-yl}phenyl)benzamide] | +++ (B) (at least one pIC50 measurement of greater than 7 against either ErbB2 or EGFR) | – |
| < 100 | > 1000 | CN1CCc2ccc(Nc3nccc(-c4c(-c5cccc(NC(=O)c6cc(F)ccc6F)c5)nn5ccccc45)n3)cc2C1 [Example 189, 2,5-Difluoro-N-[3-(3-{2-[(2-methyl-1,2,3,4-tetrahydro-7-isoquinolinyl)amino]-4-pyrimidinyl}pyrazolo[1,5-a]pyridin-2-yl)phenyl]benzamide] | +++ (B) (at least one pIC50 measurement of greater than 7 against either ErbB2 or EGFR) | – |
| 100 to 1000 | > 1000 | CC(=O)Nc1cccc(Nc2nccc(-c3c(-c4cccc(NC(=O)c5cc(F)ccc5F)c4)nn4ccccc34)n2)c1 [Example 47, N-{3-[3-(2-{[3-(acetylamino)phenyl]amino}-4-pyrimidinyl)pyrazolo[1,5-a]pyridin-2-yl]phenyl}-2,5-difluorobenzamide] | – | +++ (A) (at least one pIC50 measurement of greater than 7 against either ErbB2 or EGFR) |
| < 100 | 100 to 1000 | COc1cccc(Nc2nccc(-c3c(-c4cccc(NC(=O)c5c(F)cccc5F)c4)nn4ccccc34)n2)c1 [Example 28, 2,6-Difluoro-N-{3-[3-(2-{[3-(methyloxy)phenyl]-amino}-4-pyrimidinyl)pyrazolo[1,5-a]pyridin-2-yl]phenyl}benzamide] | +++ (B) (at least one pIC50 measurement of greater than 7 against either ErbB2 or EGFR) | – |
| < 100 | 100 to 1000 | O=C(Nc1cccc(-c2nn3ccccc3c2-c2ccnc(Nc3cccc(CCCN4CCOCC4)c3)n2)c1)c1c(F)cccc1F [Example 55, 2,6-Difluoro-N-(3-{3-[2-({3-[3-(4-morpholinyl)propyl]-phenyl}amino)-4-pyrimidinyl]pyrazolo[1,5-a]pyridin-2-yl}phenyl)benzamide] | +++ (B) (at least one pIC50 measurement of greater than 7 against either ErbB2 or EGFR) | – |
| < 100 | 100 to 1000 | NS(=O)(=O)c1cccc(Nc2nccc(-c3c(-c4cccc(NC(=O)c5c(F)cccc5F)c4)nn4ccccc34)n2)c1 [Example 118, N-{3-[3-(2-{[3-(aminosulfonyl)phenyl]amino}-4-pyrimidinyl)pyrazolo[1,5-a]pyridin-2-yl]phenyl}-2,6-difluorobenzamide] | +++ (B) (at least one pIC50 measurement of greater than 7 against either ErbB2 or EGFR) | – |
| < 100 | 100 to 1000 | NC1CCc2ccc(Nc3nccc(-c4c(-c5cccc(NC(=O)c6c(F)cccc6F)c5)nn5ccccc45)n3)cc2C1 (stereo not drawn) [Example 174, N-[3-(3-{2-[(7-Amino-5,6,7,8-tetrahydro-2-naphthalenyl)amino]-4-pyrimidinyl}pyrazolo[1,5-g]pyridin-2-yl)phenyl]-2,6-difluorobenzamidedifluorobenzamide] | +++ (B) (at least one pIC50 measurement of greater than 7 against either ErbB2 or EGFR) | – |
| 100 to 1000 | > 1000 | O=C(Nc1cccc(-c2nn3ccccc3c2-c2ccnc(Nc3ccccc3)n2)c1)c1cc(F)ccc1F [Example 43, 2,5-Difluoro-N-(3-{3-[2-(phenylamino)-4-pyrimidinyl]pyrazolo[1,5-a]pyridin-2-yl}phenyl)benzamide] | – | +++ (A) (at least one pIC50 measurement of greater than 7 against either ErbB2 or EGFR) |
| < 100 | 100 to 1000 | CN1CCc2ccc(Nc3nccc(-c4c(-c5cccc(NC(=O)c6c(F)cccc6F)c5)nn5ccccc45)n3)cc2C1 [Example 179, 2,6-Difluoro-N-[3-(3-{2-[(2-methyl-1,2,3,4-tetrahydro-7-isoquinolinyl)amino]-4-pyrimidinyl}pyrazolo[1,5-a]pyridin-2-yl)phenyl]benzamide] | +++ (B) (at least one pIC50 measurement of greater than 7 against either ErbB2 or EGFR) | – |
| > 1000 | > 1000 | COc1ccc(-c2nn3ccccc3c2-c2ccnc(Nc3ccc4c(c3)CNCC4)n2)cc1NC(=O)c1c(F)cccc1F [Example 159, 2,6-Difluoro-N-(2-(methyloxy)-5-{3-[2-(1,2,3,4-tetrahydro-7-isoquinolinylamino)-4-pyrimidinyl]pyrazolo[1,5-a]pyridin-2-yl}phenyl)benzamide] | + (B) (no pIC50 measurement greater than 6 against either ErbB2 or EGFR) | – |
| < 100 | 100 to 1000 | O=C(Nc1cccc(-c2nn3ccccc3c2-c2ccnc(Nc3ccc(N4CCOCC4)cc3)n2)c1)c1cc(F)ccc1F [Example 45, 2,5-Difluoro-N-{3-[3-(2-{[4-(4-morpholinyl)phenyl]amino}-4-pyrimidinyl)pyrazolo[1,5-a]pyridin-2-yl]phenyl}benzamide] | – | +++ (A) (at least one pIC50 measurement of greater than 7 against either ErbB2 or EGFR) |
| < 100 | 100 to 1000 | O=C1COc2cc(Nc3nccc(-c4c(-c5cccc(NC(=O)c6c(F)cccc6F)c5)nn5ccccc45)n3)ccc2N1 [Example 200, 2,6-Difluoro-N-[3-(3-{2-[(3-oxo-3,4-dihydro-2H-1,4-benzoxazin-7-yl)amino]-4-pyrimidinyl}pyrazolo[1,5-a]pyridin-2-yl)phenyl]benzamide] | +++ (B) (at least one pIC50 measurement of greater than 7 against either ErbB2 or EGFR) | – |
| < 100 | 100 to 1000 | O=C1COc2ccc(Nc3nccc(-c4c(-c5cccc(NC(=O)c6c(F)cccc6F)c5)nn5ccccc45)n3)cc2N1 [Example 197, 2,6-Difluoro-N-[3-(3-{2-[(3-oxo-3,4-dihydro-2H-1,4-benzoxazin-6-yl)amino]-4-pyrimidinyl}pyrazolo[1,5-a]pyridin-2-yl)phenyl]benzamide] | +++ (B) (at least one pIC50 measurement of greater than 7 against either ErbB2 or EGFR) | – |
